Assay results reported in US9062088B2, “CDK-inhibiting pyrrolopyrimidine carboxamide derivative or pharmaceutically acceptable salt thereof, and pharmaceutical composition containing the same as active ingredient for preventing or treating hepatocellular carcinoma” (SNU R&DB Foundation, priority 2010, dated 2015).

Key:
[1] = target: T1, Cdk7/cyclin H/MAT1 (Homo sapiens, UniProt P50613); assay: In vitro kinase assay of Cdk7, RNA Pol II-CTD-GST substrate; assay type: biochemical; settings: 0 nM = 100
T1 construct: purchased Upstate
T1 sequence (P50613 whole entry): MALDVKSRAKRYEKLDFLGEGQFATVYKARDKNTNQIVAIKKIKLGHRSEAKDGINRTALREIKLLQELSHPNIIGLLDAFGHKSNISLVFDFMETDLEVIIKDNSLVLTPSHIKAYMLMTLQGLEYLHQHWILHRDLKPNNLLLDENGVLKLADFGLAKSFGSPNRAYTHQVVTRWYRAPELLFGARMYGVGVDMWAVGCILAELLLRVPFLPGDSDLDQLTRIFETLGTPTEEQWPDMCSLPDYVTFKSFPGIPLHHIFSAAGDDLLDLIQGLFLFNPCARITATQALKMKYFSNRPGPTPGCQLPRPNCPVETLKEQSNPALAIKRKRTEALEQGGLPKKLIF
T1 sequence (P51946 whole entry partner): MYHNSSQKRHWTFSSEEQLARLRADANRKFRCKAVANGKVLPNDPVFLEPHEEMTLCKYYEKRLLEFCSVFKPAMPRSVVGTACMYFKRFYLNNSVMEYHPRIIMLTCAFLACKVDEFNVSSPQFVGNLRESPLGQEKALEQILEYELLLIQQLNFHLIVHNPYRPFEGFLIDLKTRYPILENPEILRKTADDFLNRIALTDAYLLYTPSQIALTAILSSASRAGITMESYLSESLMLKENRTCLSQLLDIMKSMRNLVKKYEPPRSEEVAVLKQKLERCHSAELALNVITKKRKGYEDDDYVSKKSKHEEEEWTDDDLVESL
T1 sequence (P51948 whole entry partner): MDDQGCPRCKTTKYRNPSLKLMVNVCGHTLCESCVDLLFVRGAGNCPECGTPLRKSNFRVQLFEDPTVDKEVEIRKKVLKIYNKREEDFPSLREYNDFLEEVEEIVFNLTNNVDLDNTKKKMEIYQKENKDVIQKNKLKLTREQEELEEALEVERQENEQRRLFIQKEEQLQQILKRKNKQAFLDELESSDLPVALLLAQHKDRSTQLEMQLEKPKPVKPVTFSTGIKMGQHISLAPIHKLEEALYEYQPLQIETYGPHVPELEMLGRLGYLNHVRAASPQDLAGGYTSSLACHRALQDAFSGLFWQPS
Protocol: (§1) To kinase assay buffer were added RNA Pol II-CTD-GST protein (Jena Bioscience, Germany) as a substrate, Cdk9/cyclin T1 or Cdk7/cyclin H/MAT1 recombinant protein (Upstate) as an enzyme, 2.5 μCi [γ-32P]ATP, and 100 μM MgAc/ATP. The total reaction volume was adjusted to 50 μl. Kinase assay reaction was induced at 30° C. for 20 minutes. Upon completion of the reaction, electrophoresis was performed on 8% SDS-polyacrylamide gel. The activities of Cdk7 and Cdk9 over the concentrations of the compounds of Example 1 and Example 2 were confirmed by autoradiography and the results are shown in FIG. 5˜FIG. 8 and Table 3.
(§2) The intensity of bands was analyzed by densitometry (GS-800, Bio-Rad).

[2] = target: T2, Cdk9/cyclin T1 (Homo sapiens, UniProt P50750); assay: In vitro kinase assay of Cdk9, RNA Pol II-CTD-GST substrate; assay type: biochemical; settings: 0 nM = 100
T2 construct: purchased Upstate
T2 sequence (P50750 whole entry): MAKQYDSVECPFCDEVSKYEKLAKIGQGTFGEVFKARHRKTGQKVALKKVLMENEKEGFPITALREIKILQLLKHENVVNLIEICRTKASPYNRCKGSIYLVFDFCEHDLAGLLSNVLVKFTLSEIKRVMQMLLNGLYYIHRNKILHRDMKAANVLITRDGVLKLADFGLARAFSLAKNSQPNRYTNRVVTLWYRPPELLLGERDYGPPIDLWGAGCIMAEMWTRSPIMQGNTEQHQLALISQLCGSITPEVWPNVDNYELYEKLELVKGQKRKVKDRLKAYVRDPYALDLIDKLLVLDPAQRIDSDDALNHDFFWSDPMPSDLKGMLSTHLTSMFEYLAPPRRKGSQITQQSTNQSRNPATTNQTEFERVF
T2 sequence (O60563 whole entry partner): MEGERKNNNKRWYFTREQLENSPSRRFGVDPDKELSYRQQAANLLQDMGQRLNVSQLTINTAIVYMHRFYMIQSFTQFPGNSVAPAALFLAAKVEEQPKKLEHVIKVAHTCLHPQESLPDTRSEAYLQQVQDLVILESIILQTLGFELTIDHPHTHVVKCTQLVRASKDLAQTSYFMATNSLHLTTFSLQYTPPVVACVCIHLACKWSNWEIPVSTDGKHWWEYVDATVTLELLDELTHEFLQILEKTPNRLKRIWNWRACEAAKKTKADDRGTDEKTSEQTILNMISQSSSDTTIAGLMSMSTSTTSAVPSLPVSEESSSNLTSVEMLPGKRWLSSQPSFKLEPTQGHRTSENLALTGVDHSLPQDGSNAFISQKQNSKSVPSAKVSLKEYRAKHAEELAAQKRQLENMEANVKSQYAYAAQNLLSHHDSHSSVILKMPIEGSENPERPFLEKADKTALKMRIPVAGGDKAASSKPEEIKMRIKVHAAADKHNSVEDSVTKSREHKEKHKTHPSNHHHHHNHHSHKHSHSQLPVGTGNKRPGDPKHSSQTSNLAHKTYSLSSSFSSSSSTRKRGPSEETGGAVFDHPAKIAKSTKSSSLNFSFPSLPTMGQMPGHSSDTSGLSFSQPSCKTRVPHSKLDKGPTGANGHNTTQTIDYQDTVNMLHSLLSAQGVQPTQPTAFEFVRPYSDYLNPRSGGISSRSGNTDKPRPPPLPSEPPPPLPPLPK
Protocol: as §1, §2

[3] = tested on: SNU-354 cells; assay: MTT assay, cell viability; assay type: cell-based; settings: Homo sapiens, SNU-354, read-out: Cell viability (%)
Protocol: Cell viability was measured by MTT assay. SNU-354 cells in the log phase of cell growth curve were distributed in a 24-well plate at the density of 2×10^4 cells/well. […] After allowing enough time for reaction, MTT reagent (MTT dissolved in PBS at the concentration of 5 mg/mL) (Sigma-Aldrich, USA) was added to each well, followed by reaction at 37° C. for 3 hours. Then, the supernatant was eliminated and the precipitated formazan crystals were dissolved in dimethyl sulfoxide, followed by measurement of absorbance with ELISA plate reader.

[4] = tested on: SNU-354 cells; assay: 3H-thymidine incorporation assay; assay type: cell-based, human; settings: 18˜24 hours
Protocol: SNU-354 cells were distributed in a 6-well plate at the density of 5×10^4 cells/well, followed by culture in FBS-free medium for 24 hours. 24 hours later, the medium was replaced with the fresh one supplemented with FBS, the compounds of Examples 1 and 2 at different concentrations and 1 μCi/mL [^3H]dT (GE Healthcare, UK). 18˜24 hours later, the cells were washed with cold PBS and then fixed with cold 5% trichloroacetic acid. DNA was lysed in […] sodium hydroxide at 37° C. for 1 hour. Then, [^3H]dT incorporated during intracellular DNA synthesis was measured by LSC (liquid scintillation counting). Intracellular DNA synthesis measured above was used as index for the evaluation of cell viability.

[5] = tested on: caspase-3 activity in SNU-354 cells; assay: Measurement of caspase-3 activity (Experimental Example 1-6-2); assay type: cell-based, human
Protocol: (§3) SNU-354 cells treated with the compounds of Examples 1 and 2 were lysed with lysis buffer (0.5% triton X-100, 20 mM Tris-HCl (pH 7.5), 2 mM magnesium chloride, 1 mM DTT, 1 mM EGTA, 50 mM β-glycerophosphate, 25 mM sodium fluoride, 1 mM Na3VO4, 2 μg/mL leupeptin, 2 μg/mL pepstatin A, 100 μg/mL phenylmethylsulfonyl fluoride, 1 μg/mL antipain). The protease analysis buffer necessary for the reaction (20 mM HEPES (pH 7.5), 10% glycerol, 2 mM DTT) was mixed with 20 μM Ac-DEVD-AMC (BD Biosciences, CA, USA) and cell lysates, followed by reaction at 37° C. for 1 hour. Upon completion of the reaction, caspase-3 activity was measured at 380 nm of excitation and 460 nm of emission with spectrofluorometer (TECAN, Switzerland) and the results are shown in FIG. 18 and Table 8.

[6] = tested on: SNU-354 cells; assay: FACS analysis of sub G1 ratio (Experimental Example 1-6-3); assay type: cell-based, human
Protocol: The cells were collected and washed with cold PBS, followed by reaction in 500 μl of cold 70% ethanol at 4° C. for overnight to fix the cells. The cells were washed with 500 μl of PBS three times, followed by reaction with 500 μl of PBS containing 50 μg/mL propidium iodide (P1) and 50 μl of 1 mg/mL RNAse A at room temperature for 30 minutes in the darkness. Fluorescence of the P1 stained cell was measured by using caliber flow cytometer and cell quest program (Becton Dickinson Immunocytometry Systems, CA, USA). Sub G1 ratio changes of HCC SNU-354 cells induced by the compounds of Examples 1 and 2 were measured by FACS analysis. The results are shown in FIG. 19, FIG. 20, Table 9 and Table 10.

[7] = tested on: caspase-3 activity in SNU-354 cells; assay: Measurement of caspase-3 activity (Experimental Example 4); assay type: cell-based, human; design: unit not given here
Protocol: as §3, with “Example 1˜Example 6” for “Examples 1 and 2”, “25” for “18”, “12.” for “8.”

Structure (SMILES)	Cdk7 activity ([1]; 10 nM)	Cdk7 activity ([1]; 100 nM)	Cdk7 activity ([1]; 1000 nM)	Cdk9 activity ([2]; 10 nM)	Cdk9 activity ([2]; 100 nM)	Cdk9 activity ([2]; 1000 nM)	viability at 0.5 µM [3]	viability at 1 µM [3]	viability at 2 µM [3]	viability at 5 µM [3]	viability at 10 µM [3]	viability at 50 µM [3]	^3H-thymidine incorporation (%) ([4]; 5.0 μM)	^3H-thymidine incorporation (%) ([4]; 10.0 μM)	^3H-thymidine incorporation (%) ([4]; 50.0 μM)	sub G1 ratio (%) ([6]; 0.1 μM, 24 hours, 0 μM = 3.0)	sub G1 ratio (%) ([6]; 0.5 μM, 24 hours, 0 μM = 3.0)	sub G1 ratio (%) ([6]; 1 μM, 24 hours, 0 μM = 3.0)	sub G1 ratio (%) ([6]; 5 μM, 24 hours, 0 μM = 3.0)	sub G1 ratio (%) ([6]; 10 μM, 24 hours, 0 μM = 3.0)	other results
NC(=O)c1c(Br)nc2n([C@H]3O[C@@H](CO)[C@H](O)[C@H]3O)cnc(N)c1-2 [Example 1, 4-amino-6-bromo-1-((2S,3R,4R,5S)-3,4-dihydroxy-5-(hydroxymethyl)-tetrahydrofuran-2-yl)-1H-pyrrolo[2,3-d]pyrimidine-5-carboxamide]	41.8%	10.8%	5.8%	15.8%	1.0%	0.1%	96.4%	84.3%	74%	68%	55.6%	36.6%	84.0%	35.2%	15.8%	2.7%	3.2%	3.5%	28.1%	64.2%	caspase-3 activity relative to the control ([5]; 1.0 uM and up): three times as high as that of the control; sub G1 ratio (%) ([6]; 50 μM, 24 hours, 0 μM = 3.0): 71.1%; sub G1 ratio (%) ([6]; 50 μM, time 6 h, 0 h = 10.3): 29.1%; sub G1 ratio (%) ([6]; 50 μM, time 12 h, 0 h = 10.3): 51.8%; sub G1 ratio (%) ([6]; 50 μM, time 18 h, 0 h = 10.3): 71.7%; sub G1 ratio (%) ([6]; 50 μM, time 24 h, 0 h = 10.3): 78.1%; concentration at which sub G1 ratio was rapidly increased ([6]; 24 hours): 5 µM; Caspase-3 activity ([7]; 5 μM): 8.4; Caspase-3 activity ([7]; 10 μM): 8.1
CC(C)C(=O)OC[C@@H]1O[C@H](n2cnc(N)c3c(C(N)=O)c(Br)nc2-3)[C@H](O)[C@H]1O [Example 2, ((2S,3R,4R,5S)-5-(4-amino-6-bromo-5-carbamoyl-1H-pyrrolo[2,3-d]pyrimidin-1-yl)-3,4-dihydroxy-tetrahydrofuran-2-yl)methyl isobutyrate]	92.2%	91.1%	6.5%	95.4%	40.5%	3.3%	86.3%	75.5%	64.7%	47.6%	35.4%	16.8%	50.7%	20.4%	8%	3.8%	39.6%	52.0%	69.8%	72.6%	caspase-3 activity relative to the control ([5]; 0.5 uM and up): 7 times; sub G1 ratio (%) ([6]; 50 μM, 24 hours, 0 μM = 3.0): 73.1%; sub G1 ratio (%) ([6]; 50 μM, time 6 h, 0 h = 10.3): 51.6%; sub G1 ratio (%) ([6]; 50 μM, time 12 h, 0 h = 10.3): 67.6%; sub G1 ratio (%) ([6]; 50 μM, time 18 h, 0 h = 10.3): 72.3%; sub G1 ratio (%) ([6]; 50 μM, time 24 h, 0 h = 10.3): 81.2%; concentration at which sub G1 ratio was rapidly increased ([6]; 24 hours): 0.5 µM; Caspase-3 activity ([7]; 5 μM): 9.7; Caspase-3 activity ([7]; 10 μM): 11.0
